According to PubChem BioAssay (NCI):
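Method: 48-hour compound exposure of cells in 96-well plates, five concentrations, linear interpolation of endpoints. GI50 is the concentration that inhibits growth by half. TGI marks complete inhibition of growth.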

Legend:
Assay in all cases: NCI tumour cell line growth inhibition, 48 h
[1] = tested on: CAKI-1 renal
[2] = tested on: SK-OV-3 ovarian
[3] = tested on: NCI-H522 lung
[4] = tested on: A498 renal
[5] = tested on: HS 578T breast
[6] = tested on: K-562 leukemia
[7] = tested on: BT-549 breast
[8] = tested on: SNB-19 CNS
[9] = tested on: SR leukemia
[10] = tested on: NCI-H226 lung
[11] = tested on: A549 NSCLC
[12] = tested on: HCC-2998 colon
[13] = tested on: MALME-3M melanoma
[14] = tested on: T-47D breast
[15] = tested on: SK-MEL-28 melanoma
[16] = tested on: CCRF-CEM leukemia
[17] = tested on: MCF7 breast
[18] = tested on: U251 CNS
[19] = tested on: KM12 colon
[20] = tested on: SNB-75 CNS
[21] = tested on: IGROV1 ovarian
[22] = tested on: HCT-116 colon
[23] = tested on: COLO 205 colon
[24] = tested on: UACC-62 melanoma
[25] = tested on: NCI-H460 lung
[26] = tested on: HCT-15 colon
[27] = tested on: PC-3 prostate
[28] = tested on: SK-MEL-5 melanoma
[29] = tested on: SN12C renal
[30] = tested on: OVCAR-3 ovarian
[31] = tested on: OVCAR-4 ovarian
[32] = tested on: HOP-62 NSCLC
[33] = tested on: RPMI-8226 leukemia
[34] = tested on: RXF 393 renal
[35] = tested on: OVCAR-8 ovarian
[36] = tested on: SF-268 CNS
[37] = tested on: DU-145 prostate
[38] = tested on: SF-539 CNS
[39] = tested on: ACHN renal
[40] = tested on: MDA-MB-231 breast
[41] = tested on: 786-0 renal
[42] = tested on: MDA-MB-435
[43] = tested on: NCI-H23 lung
[44] = tested on: TK-10 renal
[45] = tested on: NCI/ADR-RES ovarian
[46] = tested on: MOLT-4 leukemia
[47] = tested on: OVCAR-5 ovarian
[48] = tested on: UO-31 renal
[49] = tested on: M14 melanoma
[50] = tested on: HL-60(TB) leukemia
[51] = tested on: SW-620 colon
[52] = tested on: HT29 colon
[53] = tested on: UACC-257 melanoma
[54] = tested on: SF-295 CNS

Q: Which results are given for COc1cc(-c2cc(-c3nc4ccc(F)cc4[nH]3)[nH]n2)cc(OC)c1OC?
A: GI50 [1]: 1.8 µM; TGI [1]: 6.84 µM; GI50 [2]: 3.32 µM; TGI [2]: 9.59 µM; GI50 [3]: 1.73 µM; TGI [3]: 5.15 µM; GI50 [4]: 1.86 µM; TGI [4]: 11.9 µM; GI50 [5]: 3.32 µM; TGI [5]: > 100 µM; GI50 [6]: 2.87 µM; TGI [6]: 32.7 µM; GI50 [7]: 1.84 µM; TGI [7]: 6.28 µM; GI50 [8]: 5.47 µM; TGI [8]: 18.8 µM; GI50 [9]: 3.45 µM; TGI [9]: 32 µM; GI50 [10]: 1.28 µM; TGI [10]: 4.31 µM; GI50 [11]: 2.46 µM; TGI [11]: 8.81 µM; GI50 [12]: 5.96 µM; TGI [12]: 18.7 µM; GI50 [13]: 1.96 µM; TGI [13]: 8.44 µM; GI50 [14]: 0.764 µM; TGI [14]: 3.09 µM; GI50 [15]: 2.39 µM; TGI [15]: 6.52 µM; GI50 [16]: 1.98 µM; TGI [16]: 5.74 µM; GI50 [17]: 2.11 µM; TGI [17]: 6.37 µM; GI50 [18]: 2.61 µM; TGI [18]: 12 µM; GI50 [19]: 2.29 µM; TGI [19]: 6.23 µM; GI50 [20]: 1.76 µM; TGI [20]: 5.54 µM; GI50 [21]: 2.27 µM; TGI [21]: 10.7 µM; GI50 [22]: 2.81 µM; TGI [22]: 10.4 µM; GI50 [23]: 3.26 µM; TGI [23]: 10.3 µM; GI50 [24]: 1.8 µM; TGI [24]: 4.82 µM; GI50 [25]: 2.9 µM; TGI [25]: 11.8 µM; GI50 [26]: 2.79 µM; TGI [26]: 10.8 µM; GI50 [27]: 1.63 µM; TGI [27]: 5.84 µM; GI50 [28]: 1.39 µM; TGI [28]: 2.8 µM; GI50 [29]: 2.92 µM; TGI [29]: 12.9 µM; GI50 [30]: 2.95 µM; TGI [30]: 10 µM; GI50 [31]: 1.29 µM; TGI [31]: 4.27 µM; GI50 [32]: 2.37 µM; TGI [32]: 8.05 µM; GI50 [33]: 1.24 µM; TGI [33]: 3.26 µM; GI50 [34]: 1.85 µM; TGI [34]: 9.36 µM; GI50 [35]: 1.99 µM; TGI [35]: 5.03 µM; GI50 [36]: 3.23 µM; TGI [36]: 11.2 µM; GI50 [37]: 3.17 µM; TGI [37]: 13 µM; GI50 [38]: 3.58 µM; TGI [38]: 14.4 µM; GI50 [39]: 2.54 µM; TGI [39]: 11.6 µM; GI50 [40]: 3.05 µM; TGI [40]: 15.2 µM; GI50 [41]: 3.97 µM; TGI [41]: 14.6 µM; GI50 [42]: 2.12 µM; TGI [42]: 5.44 µM; GI50 [43]: 2.35 µM; TGI [43]: 6.89 µM; GI50 [44]: 4.39 µM; TGI [44]: 16 µM; GI50 [45]: 3.19 µM; TGI [45]: 9.2 µM; GI50 [46]: 2.1 µM; TGI [46]: 4.82 µM; GI50 [47]: 11.1 µM; TGI [47]: 24 µM; GI50 [48]: 1.74 µM; TGI [48]: 6.97 µM; GI50 [49]: 2.36 µM; TGI [49]: 7.62 µM; GI50 [50]: 2.52 µM; TGI [50]: 7.71 µM; GI50 [51]: 4.11 µM; TGI [51]: 20.5 µM; GI50 [52]: 4.4 µM; TGI [52]: 28.3 µM; GI50 [53]: 2.15 µM; TGI [53]: 5.9 µM; GI50 [54]: 2.51 µM; TGI [54]: 9.67 µM
